Laboratory results published in patent US20130085064A1, “PESTICIDAL MIXTURES CONTAINING ISOXAZOLINE DERIVATIVES AND INSECTICIDE OR NEMATOICIDAL BIOLOGICAL AGENT” (priority 2010, published 2013).
Values joined by “and” are separate entries in the source; they are usually repeats but may differ in a detail not shown here. Equal entries are not always repeated. Where two headings read alike, the source gives them in different places.

Legend:
[1] = system: Heliothis virescens (tobacco budworm); experiment: Heliothis virescens eggs in 24-well microtiter plate on artificial diet, larval mortality; assay type: in vivo; conditions: for pest or weed control at 0.375 ppm / pest or weed control at 0.75 ppm / pest or weed control at 1.5 ppm / pest or weed control at 3 ppm / pest or weed control at 6 ppm / pest or weed control at 12 ppm / pest or weed control at 6.25 ppm / pest or weed control at 12.5 ppm / pest or weed control at 25 ppm / pest or weed control at 50 ppm / pest or weed control at 100 ppm / pest or weed control at 200 ppm: Heliothis virescens, 96 h, read-out: AVERAGE DEAD IN %
Description: (§1) The action to be expected E for a given active ingredient combination obeys the so-called COLBY formula and can be calculated as follows (COLBY, S.R. “Calculating synergistic and antagonistic responses of herbicide combination”. Weeds, Vol. 15, pages 20-22; 1967):
(§2) ppm=milligrams of active ingredient (=a.i.) per liter of spray mixture X=% action by active ingredient A) using p ppm of active ingredient Y=% action by active ingredient B) using q ppm of active ingredient.
(§3) According to COLBY, the expected (additive) action of active ingredients A)+B) using p+q ppm of active ingredient is
(§4) If the action actually observed (O) is greater than the expected action (E), then the action of the combination is super-additive, i.e. there is a synergistic effect. In mathematical terms the synergism factor SF corresponds to O/E. In the agricultural practice an SF of ≧1.2 indicates significant improvement over the purely complementary addition of activities (expected activity), while an SF of ≦0.9 in the practical application routine signals a loss of activity compared to the expected activity.
Heliothis Virescens (Tobacco Budworm)
Eggs (0-24 h old) are placed in 24-well microtiter plate on artificial diet and treated with test solutions (DMSO) by pipetting. After an incubation period of 4 days, samples are checked for larval mortality.

[2] = system: Tetranychus urticae (two-spotted spider mite); experiment: Tetranychus urticae bean leaf discs in 24-well microtiter plates, mixed population mortality; assay type: in vivo; conditions: 8 days
Description: as §1, §2, §3, §4
Tetranychus Urticae (Two-Spotted Spider Mite)
Bean leaf discs on agar in 24-well microtiter plates are sprayed with test solutions (DMSO). After drying, the leaf discs are infested with mite populations of mixed ages. 8 days later, discs are checked for mixed population mortality.

[3] = single compound, 12.5 ppm AI, larval mortality, 4 days
[4] = single compound, 25 ppm AI, larval mortality, 4 days
[5] = single compound, 50 ppm AI, larval mortality, 4 days
[6] = single compound, 100 ppm AI, larval mortality, 4 days
[7] = single compound, 200 ppm AI, larval mortality, 4 days

Compound: Cc1cc(C2=NOC(c3cc(Cl)cc(Cl)c3)(C(F)(F)F)C2)ccc1C(=O)NC1CSC1 (racemic) [SYN 545706]
- AVERAGE DEAD IN % ([1]; single compound, 0.1 ppm AI, larval mortality, 4 days): 0%
- AVERAGE DEAD IN % ([1]; single compound, 0.2 ppm AI, larval mortality, 4 days): 35% and 25%
- AVERAGE DEAD IN % ([1]; single compound, 0.4 ppm AI, larval mortality, 4 days): 90% and 78%
- AVERAGE DEAD IN % ([1]; single compound, 0.8 ppm AI, larval mortality, 4 days): 95% and 88%
- AVERAGE DEAD IN % ([1]; single compound, 1.6 ppm AI, larval mortality, 4 days): 90% and 91%
- AVERAGE DEAD IN % ([1]; single compound, 3.2 ppm AI, larval mortality, 4 days): 98% and 96%

Compound: CN/C(=N\[N+](=O)[O-])NCc1cnc(Cl)s1 [Clothianidin]
- pest or weed control at 0.375 ppm ([1]; Clothianidin alone 0.375 ppm AI): 0%
- pest or weed control at 0.75 ppm ([1]; Clothianidin alone 0.75 ppm AI): 0%
- pest or weed control at 1.5 ppm ([1]; Clothianidin alone 1.5 ppm AI): 0%
- pest or weed control at 3 ppm ([1]; Clothianidin alone 3 ppm AI): 3%
- pest or weed control at 6 ppm ([1]; Clothianidin alone 6 ppm AI): 38%
- pest or weed control at 12 ppm ([1]; Clothianidin alone 12 ppm AI): 48%
- pest or weed control at 0.375 ppm ([1]; single compound at 0.375 ppm AI): 0%
- pest or weed control at 0.75 ppm ([1]; single compound at 0.75 ppm AI): 0%
- pest or weed control at 1.5 ppm ([1]; single compound at 1.5 ppm AI): 0%
- pest or weed control at 3 ppm ([1]; single compound at 3 ppm AI): 3%
- pest or weed control at 6 ppm ([1]; single compound at 6 ppm AI): 38%
- pest or weed control at 12 ppm ([1]; single compound at 12 ppm AI): 48%
- pest or weed control at 0.375 ppm ([1]; single compound, 0.375 ppm AI, larval mortality, 4 days): 0%
- pest or weed control at 0.75 ppm ([1]; single compound, 0.75 ppm AI, larval mortality, 4 days): 0%
- pest or weed control at 1.5 ppm ([1]; single compound, 1.5 ppm AI, larval mortality, 4 days): 0%
- pest or weed control at 3 ppm ([1]; single compound, 3 ppm AI, larval mortality, 4 days): 0%
- pest or weed control at 6 ppm ([1]; single compound, 6 ppm AI, larval mortality, 4 days): 45%
- pest or weed control at 12 ppm ([1]; single compound, 12 ppm AI, larval mortality, 4 days): 80%

Compound: N#CCNC(=O)c1cnccc1C(F)(F)F [Flonicamid]
- AVERAGE DEAD IN % ([1]; Flonicamid alone 12.5 ppm AI): 0%
- AVERAGE DEAD IN % ([1]; Flonicamid alone 25 ppm AI): 0%
- AVERAGE DEAD IN % ([1]; Flonicamid alone 50 ppm AI): 0%
- AVERAGE DEAD IN % ([1]; Flonicamid alone 100 ppm AI): 0%
- AVERAGE DEAD IN % ([1]; Flonicamid alone 200 ppm AI): 0%
- AVERAGE DEAD IN % ([1]; Flonicamid alone 400 ppm AI): 0%
- AVERAGE DEAD IN % ([1]; single compound at 12.5 ppm AI): 0%
- AVERAGE DEAD IN % ([1]; single compound at 25 ppm AI): 0%
- AVERAGE DEAD IN % ([1]; single compound at 50 ppm AI): 0%
- AVERAGE DEAD IN % ([1]; single compound at 100 ppm AI): 0%
- AVERAGE DEAD IN % ([1]; single compound at 200 ppm AI): 0%
- AVERAGE DEAD IN % ([1]; single compound at 400 ppm AI): 0%
- AVERAGE DEAD IN % [1, 3]: 0%
- AVERAGE DEAD IN % [1, 4]: 0%
- AVERAGE DEAD IN % [1, 5]: 15%
- AVERAGE DEAD IN % [1, 6]: 0%
- AVERAGE DEAD IN % [1, 7]: 0%
- AVERAGE DEAD IN % ([1]; single compound, 400 ppm AI, larval mortality, 4 days): 0%

Compound: O=[N+]([O-])NC1=NCCN1Cc1ccc(Cl)nc1 [Imidacloprid]
- pest or weed control at 6.25 ppm ([1]; Imidacloprid alone 6.25 ppm AI): 0%
- pest or weed control at 12.5 ppm ([1]; Imidacloprid alone 12.5 ppm AI): 0%
- pest or weed control at 25 ppm ([1]; Imidacloprid alone 25 ppm AI): 20%
- pest or weed control at 50 ppm ([1]; Imidacloprid alone 50 ppm AI): 50%
- pest or weed control at 100 ppm ([1]; Imidacloprid alone 100 ppm AI): 95%
- pest or weed control at 200 ppm ([1]; Imidacloprid alone 200 ppm AI): 100%
- pest or weed control at 6.25 ppm ([1]; single compound at 6.25 ppm AI): 0%
- pest or weed control at 12.5 ppm ([1]; single compound at 12.5 ppm AI): 0%
- pest or weed control at 25 ppm ([1]; single compound at 25 ppm AI): 20%
- pest or weed control at 50 ppm ([1]; single compound at 50 ppm AI): 50%
- pest or weed control at 100 ppm ([1]; single compound at 100 ppm AI): 95%
- pest or weed control at 200 ppm ([1]; single compound at 200 ppm AI): 100%
- pest or weed control at 6.25 ppm ([1]; single compound, 6.25 ppm AI, larval mortality, 4 days): 0%
- pest or weed control at 12.5 ppm [1, 3]: 0%
- pest or weed control at 25 ppm [1, 4]: 75%
- pest or weed control at 50 ppm [1, 5]: 85%
- pest or weed control at 100 ppm [1, 6]: 88%
- pest or weed control at 200 ppm [1, 7]: 100%
- AVERAGE DEAD IN % ([2]; 25 ppm alone): 0%
- AVERAGE DEAD IN % ([2]; 50 ppm alone): 0%
- AVERAGE DEAD IN % ([2]; 100 ppm alone): 25%
- AVERAGE DEAD IN % ([2]; 200 ppm alone): 0%
- AVERAGE DEAD IN % ([2]; 400 ppm alone): 13%
- AVERAGE DEAD IN % ([2]; 800 ppm alone): 25%
- AVERAGE DEAD IN % ([2]; Imidacloprid alone, 25 ppm, Table 123): 0%
- AVERAGE DEAD IN % ([2]; Imidacloprid alone, 50 ppm, Table 123): 0%
- AVERAGE DEAD IN % ([2]; Imidacloprid alone, 100 ppm, Table 123): 25%
- AVERAGE DEAD IN % ([2]; Imidacloprid alone, 200 ppm, Table 123): 0%
- AVERAGE DEAD IN % ([2]; Imidacloprid alone, 400 ppm, Table 123): 13%
- AVERAGE DEAD IN % ([2]; Imidacloprid alone, 800 ppm, Table 123): 25%

Compound: Emamectin
- AVERAGE DEAD IN % ([2]; 0.1 ppm alone): 70%
- AVERAGE DEAD IN % ([2]; 0.2 ppm alone): 75%
- AVERAGE DEAD IN % ([2]; 0.4 ppm alone): 93%
- AVERAGE DEAD IN % ([2]; 0.8 ppm alone): 95%
- AVERAGE DEAD IN % ([2]; 1.6 ppm alone): 95%
- AVERAGE DEAD IN % ([2]; 3.2 ppm alone): 100%
- AVERAGE DEAD IN % ([2]; Emamectin alone, 0.1 ppm, Table 121): 70%
- AVERAGE DEAD IN % ([2]; Emamectin alone, 0.2 ppm, Table 121): 75%
- AVERAGE DEAD IN % ([2]; Emamectin alone, 0.4 ppm, Table 121): 93%
- AVERAGE DEAD IN % ([2]; Emamectin alone, 0.8 ppm, Table 121): 95%
- AVERAGE DEAD IN % ([2]; Emamectin alone, 1.6 ppm, Table 121): 95%
- AVERAGE DEAD IN % ([2]; Emamectin alone, 3.2 ppm, Table 121): 100%
